Measurements published in paper PMC10583863 (European journal of medicinal chemistry, 2022).
Values after ≈ are worked out from the molar mass of the structure shown. Where two headings read alike, the source gives them in different places.

How the values were obtained:
[1] = system: M. tuberculosis H37Rv; assay: microbe, parasite or virus in culture; format: cell-based, Mycobacterium tuberculosis; conditions: for MIC90: Mycobacterium tuberculosis, H37RV, read-out: MIC90 MtbH37Rv
[2] = Metabolic stability in human liver microsomes; format: in vitro ADME; conditions: 60 min incubation
[3] = system: M. marinum infected zebrafish larvae; assay: Zebrafish larvae model of M. marinum infection; format: in vivo; conditions: caudal vein microinjection, ca. 6–8 ng, by tendency
[4] = in words; cited from earlier work
[5] = introduction, earlier work; cited from earlier work
[6] = system: M. tuberculosis H37Rv; conditions: activity already reported, cited from earlier work
[7] = system: M. abscessus Bamboo; assay: MIC by broth microdilution, NTM; conditions: especially against M. abscessus Bamboo; weak
[8] = system: H37Rv; assay: MIC by micro-broth dilution method, Mtb panel; format: cell-based, Mycobacterium tuberculosis; conditions: strain H37Rv
[9] = system: Ty1 (Rv3405c, c190t); assay: MIC by micro-broth dilution method, Mtb panel; format: cell-based; conditions: Mycobacterium tuberculosis
[10] = system: 81.10 (ethA, Δ1109–37); format: cell-based; conditions: strain 81.10 (ethA, Δ1109–37)

| SMILES | MIC90 [1] | other results |
| --- | --- | --- |
| O=C(Nc1ccccc1)c1cc(-c2csc(Nc3ccc(CO)cc3)n2)on1 [Compound 42n, 5-(2-((4-(hydroxymethyl)phenyl)amino)thiazol-4-yl)-N-phenylisoxazole-3-carboxamide] |  | antitubercular whole cell activity in words [1]: no whole cell activity |
| O=C(Nc1ccccc1)c1cc(-c2csc(Nc3cc(Cl)c(Cl)c(Cl)c3)n2)on1 [Compound 42j] |  | metabolic stability in HLM in words [2]: did not show any significant biotransformation |
| Cc1cccc(NC(=O)c2cc(C(=O)Nc3nc4ccc(C)cc4s3)on2)c1 [Compound 60b] | > 40 µg/mL |  |
| Cc1ccc2nc(NC(=O)c3cc(C(=O)Nc4ccccc4)no3)sc2c1 [Compound 59b] | > 40 µg/mL |  |
| O=C(Nc1ccccn1)c1cc(-c2csc(Nc3cc(Cl)c(Cl)c(Cl)c3)n2)on1 [Compound 43j] |  | metabolic stability in HLM in words [2]: did not show any significant biotransformation |
| Cc1ccc(Nc2nc(-c3cc(C(=O)Nc4ccccc4)no3)cs2)cc1 [Compound 3] | 2.7 µM | granuloma formation [3]: granuloma formation was slightly less pronounced than in the untreated control group; reactivity to glutathione [4]: ruling out the possibility of indiscriminate reactivity toward biological nucleophiles |
| Cc1ccc(Nc2nc(-c3cc(C(=O)Nc4ccccn4)no3)cs2)cc1 [Compound 4] | 1.3 µM | half-life in human liver microsomes (HLM) [5]: 35 ± 0.8 min; reactivity to glutathione [4]: ruling out the possibility of indiscriminate reactivity toward biological nucleophiles |
| COc1ccc2sc(NC(=O)c3cc(C(=O)Nc4cccc(C)c4)no3)nc2c1 [Compound 60c] | > 40 µg/mL |  |
| Cc1ccc(Nc2nc(-c3cc(C(=O)Nc4ccccc4)no3)co2)cc1 [Compound 47] | 2.8 µM |  |
| Cc1ccc(NC(=O)c2cc(-c3csc(Nc4ccc(C)cc4)n3)on2)cc1 [Compound 14a] | 2.6 µM |  |
| Cc1ccc(Nc2nc(-c3cc(C(=O)Nc4ccccn4)no3)co2)cc1 [Compound 48] |  | MIC90 MtbH37Rv ([6]; value in brackets): 6.9 µM |
| Cc1ccc2nc(NC(=O)c3cc(C(=O)Nc4ccc(O)cc4)no3)sc2c1 [Compound 61b] | > 40 µg/mL |  |
| Cc1ccc(Nc2nc(-c3cc(C(=O)Nc4ccccn4)no3)cs2)cc1O [Compound 43e] | 12.6 µM | antitubercular whole cell activity in words [1]: retained a certain activity |
| O=C(Nc1cccc(O)c1)c1cc(C(=O)Nc2nc3ccccc3s2)on1 [Compound 63a] | > 40 µg/mL |  |
| O=C(Nc1ccccc1)c1cc(-c2csc(Nc3ccc(Cl)cc3)n2)on1 [Compound 42l] | 3.2 µM |  |
| O=C(Nc1ccccn1)c1cc(C(=O)Nc2nc3ccccc3s2)on1 [Compound 59a] | > 40 µg/mL |  |
| Cc1ccc(Nc2nc(-c3cc(C(=O)Nc4ccccc4F)no3)cs2)cc1 [Compound 11a] | 2.5 µM |  |
| Cc1ccc(Nc2nc(-c3cc(C(=O)Nc4ccsc4)no3)cs2)cc1 [Compound 32a] | 2.6 µM |  |
| Cc1ccc(Nc2nc(-c3cc(C(=O)Nc4cc(C)ccn4)no3)cs2)cc1 [Compound 27a] | 2.6 µM |  |
| Cc1ccc2nc(NC(=O)c3cc(C(=O)Nc4ccccn4)no3)sc2c1 [Compound 58b] | > 40 µg/mL |  |
| Cc1ccc(Nc2nc(-c3cc(C(=O)Nc4ccc(O)cc4)no3)cs2)cc1 [Compound 20a] | 1.3 µM |  |
| Nc1nc(-c2cc(C(=O)Nc3ccccn3)no2)cs1 [Compound 43i] |  | metabolic stability in HLM in words [2]: did not show any significant biotransformation |
| CCOC(=O)c1cc(-c2cccc(Nc3ccc(C)cc3)n2)on1 [Compound 53, Ethyl 5-(6-(p-tolylamino)pyridin-2-yl)isoxazole-3-carboxylate] | 3.8 µM |  |

| SMILES | MIC90 [1] | other results |
| --- | --- | --- |
| Nc1nc(-c2cc(C(=O)Nc3ccccc3)no2)cs1 [Compound 42i] |  | metabolic stability in HLM in words [2]: did not show any significant biotransformation |
| O=C(Nc1ccccc1)c1cc(-c2csc(Nc3cccc(O)c3)n2)on1 [Compound 42m] | 13.2 µM |  |
| Cc1ccc(Nc2nc(-c3cc(C(=O)Nc4ccccc4O)no3)cs2)cc1 [Compound 22a] | 1.3 µM |  |
| O=C(Nc1ccccn1)c1cc(-c2csc(Nc3ccccc3)n2)on1 [Compound 43g] |  | inhibitory activity in words [7]: concentration-dependent inhibitory activity |
| Cc1cc(C)cc(Nc2nc(-c3cc(C(=O)Nc4ccccc4)no3)cs2)c1 [Compound 35d] | 2.5 µM |  |
| Cc1ccc(Nc2nc(-c3cc(C(=O)Nc4cccnc4)no3)cs2)cc1 [Compound 24a] | 26 µM |  |
| Cc1ccc(Nc2nc(-c3cc(C(=O)Nc4ccncc4)no3)cs2)cc1 [Compound 23a] | 2.6 µM |  |
| O=C(Nc1ccccn1)c1cc(-c2csc(Nc3ccc(CO)cc3)n2)on1 [Compound 43n, 5-(2-((4-(hydroxymethyl)phenyl)amino)thiazol-4-yl)-N-(pyridin-2-yl)isoxazole-3-carboxamide] |  | antitubercular whole cell activity in words [1]: no whole cell activity |
| O=C(Nc1cccc(F)c1)c1cc(C(=O)Nc2nc3ccccc3s2)on1 [Compound 62a] | > 40 µg/mL |  |
| Cc1ccc(Nc2nc(-c3cc(C(=O)Nc4cccc(O)c4)no3)cs2)cc1 [Compound 21a] | 1.3 µM |  |
| Cc1ccc(Nc2nc(-c3cc(C(=O)Nc4ccccc4)no3)cs2)cc1O [Compound 42e] | 6.3 µM | antitubercular whole cell activity in words [1]: retained a certain activity |
| O=C(Nc1ccccn1)c1cc(-c2csc(Nc3cc(Cl)cc(Cl)c3)n2)on1 [Compound 36b] |  | MIC90 MtbH37Rv [6]: >20 µg/mL |
| Cc1ccc(Nc2nc(-c3cc(C(=O)Nc4ccccc4C)no3)cs2)cc1 [Compound 16a] | 2.5 µM |  |
| O=C(Nc1ccccc1)c1cc(C(=O)Nc2nc3ccccc3s2)on1 [Compound 58a] | > 40 µg/mL |  |
| Cc1ccc(Nc2nc(-c3cc(C(=O)Nc4cccc(F)c4)no3)cs2)cc1 [Compound 10a] | 6.3 µM |  |
| Cc1ccc(Nc2nc(-c3cc(C(=O)Nc4cccc(C)c4)no3)cs2)cc1 [Compound 15a] | 1.3 µM |  |
| O=C(Nc1ccc(O)cc1)c1cc(C(=O)Nc2nc3ccccc3s2)on1 [Compound 61a] | > 40 µg/mL |  |
| Cc1cccc(NC(=O)c2cc(C(=O)Nc3nc4ccccc4s3)on2)c1 [Compound 60a] | > 40 µg/mL |  |
| Cc1ccc(Nc2nc(-c3cc(C(=O)Nc4ccc(F)cc4)no3)cs2)cc1 [Compound 9a] | 2.5 µM |  |
| O=C(Nc1ccccc1)c1cc(-c2csc(Nc3cc(Cl)cc(Cl)c3)n2)on1 [Compound 35b] |  | MIC90 MtbH37Rv [6]: >20 µg/mL |
| Cc1ccc(Nc2nc(-c3cc(C(=O)Nc4ccc(O)cc4)no3)cs2)cc1O [Compound 20e] | 12.2 µM |  |
| O=C(Nc1ccccc1)c1cc(-c2csc(Nc3ccccc3)n2)on1 [Compound 42g] | 3.4 µM | inhibitory activity in words [7]: concentration-dependent inhibitory activity |
| NNC(=O)c1ccncc1 [INH, Isoniazide] |  | MIC90 MtbH37Rv ([1]; REMA method, M. tuberculosis H37Rv): 0.025 µg/mL (≈ 0.182 µM); MIC90 [8]: 0.025 µg/mL (≈ 0.182 µM); MIC90 [9]: 0.025 µg/mL (≈ 0.182 µM); MIC90 [10]: 0.025 µg/mL (≈ 0.182 µM) |
